In ChEMBL document CHEMBL4715851, “Research advances on selective phosphatidylinositol 3 kinase δ (PI3Kδ) inhibitors” (Bioorg Med Chem Lett, 2020):

How the values were obtained:
[1] = Inhibition of C-terminal PI3Kdelta/p85 (unknown origin) expressed in baculovirus expression system using Phosphatidylinositol as substrate in presence of ATP by TR-FRET assay; parameters: species or system Homo sapiens
[2] = target: T1, Phosphatidylinositol 4,5-bisphosphate 3-kinase catalytic subunit delta isoform (Homo sapiens, UniProt O00329); assay: Inhibition of PI3K-delta (unknown origin)
T1 sequence (O00329 whole entry): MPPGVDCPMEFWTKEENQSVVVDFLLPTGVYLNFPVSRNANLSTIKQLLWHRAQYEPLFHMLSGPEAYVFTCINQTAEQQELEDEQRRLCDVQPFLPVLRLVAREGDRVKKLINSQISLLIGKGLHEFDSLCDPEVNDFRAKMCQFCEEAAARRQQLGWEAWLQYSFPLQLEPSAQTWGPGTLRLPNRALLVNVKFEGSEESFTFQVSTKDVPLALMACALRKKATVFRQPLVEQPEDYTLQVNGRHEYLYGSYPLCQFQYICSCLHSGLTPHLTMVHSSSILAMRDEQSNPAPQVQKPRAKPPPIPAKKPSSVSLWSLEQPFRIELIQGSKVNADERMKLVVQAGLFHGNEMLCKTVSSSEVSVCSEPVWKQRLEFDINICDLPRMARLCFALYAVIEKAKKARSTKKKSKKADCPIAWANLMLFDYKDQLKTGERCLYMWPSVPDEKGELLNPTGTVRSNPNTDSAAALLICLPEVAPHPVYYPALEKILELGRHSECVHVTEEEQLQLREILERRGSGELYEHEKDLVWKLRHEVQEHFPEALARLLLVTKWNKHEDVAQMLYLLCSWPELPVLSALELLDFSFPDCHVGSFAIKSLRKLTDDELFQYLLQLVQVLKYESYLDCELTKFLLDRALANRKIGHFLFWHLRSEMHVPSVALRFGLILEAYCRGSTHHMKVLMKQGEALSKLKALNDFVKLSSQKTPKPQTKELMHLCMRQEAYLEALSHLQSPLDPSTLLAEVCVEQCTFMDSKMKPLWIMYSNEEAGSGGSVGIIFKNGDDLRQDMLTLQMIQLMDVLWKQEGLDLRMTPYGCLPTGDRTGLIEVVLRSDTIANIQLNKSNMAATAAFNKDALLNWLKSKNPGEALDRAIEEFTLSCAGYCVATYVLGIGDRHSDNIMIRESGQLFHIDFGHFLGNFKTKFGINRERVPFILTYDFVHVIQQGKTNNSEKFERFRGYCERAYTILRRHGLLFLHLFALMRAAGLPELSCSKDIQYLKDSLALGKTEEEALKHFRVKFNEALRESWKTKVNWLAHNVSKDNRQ

Question: With C[C@H](Nc1ncnc2scnc12)c1cc2cccc(-c3cnn(C)c3)c2c(=O)n1-c1ccccc1 as the compound, how does the IC50 [1] read?
Answer: < 100 nM

Question: With C=Cc1ccc2oc3ccc(=O)n(-c4cccc(NC(=O)c5ccc(OC)nc5)c4)c3c2c1 as the compound, how does the IC50 [2] read?
Answer: 170 nM
